Three molecules from patent publication US6414154B1, “Tetraisoquinoline derivatives as modulators of dopamine D3 receptors” (SmithKline Beecham p.l.c., priority 1998, dated 2002) can be followed below.

Structures can show the parent of a compound that is named as a salt.

The target in this experiment is T1, human D3 dopamine receptors (Homo sapiens, UniProt P35462).
T1 construct: expressed in transfected cells; host or cells: CHO cells (crude cell membranes)
T1 sequence (P35462 whole entry): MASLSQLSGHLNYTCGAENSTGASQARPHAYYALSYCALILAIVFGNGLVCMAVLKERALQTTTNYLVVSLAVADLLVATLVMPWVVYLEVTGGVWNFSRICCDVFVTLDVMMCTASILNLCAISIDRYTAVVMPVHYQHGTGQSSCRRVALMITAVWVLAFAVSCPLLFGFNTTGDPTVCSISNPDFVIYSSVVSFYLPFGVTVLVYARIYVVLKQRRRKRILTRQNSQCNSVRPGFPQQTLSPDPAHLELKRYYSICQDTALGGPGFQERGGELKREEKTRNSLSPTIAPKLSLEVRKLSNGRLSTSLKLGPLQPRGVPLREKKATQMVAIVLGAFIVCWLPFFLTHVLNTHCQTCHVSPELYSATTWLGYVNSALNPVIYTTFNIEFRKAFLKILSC
Kind of experiment: displacement of [125I] iodosulpride binding to cloned human D3 dopamine receptors expressed in CHO cells. The following applies: 0.1 nM [125I] iodosulpride, CHO cell membranes, 30 min at 37° C.; read-out: pKi at the D3 receptor (converted). As for the experimental part:
The inhibition constants (Ki) of test compounds for displacement of [^125I] iodosulpride binding to human D3 dopamine receptors expressed in CHO cells were determined as follows. […] Cultures were grown as monolayers or in suspension in standard cell culture media. Cells were recovered by scraping (from monolayers) or by centrifugation (from suspension cultures), and were washed two or three times by suspension in phosphate buffered saline followed by collection by centrifugation. Cell pellets were stored frozen at −40° C. Crude cell membranes were prepared by homogenisation followed by high-speed centrifugation, and characterisation of cloned receptors achieved by radioligand binding.
Cell pellets were gently thawed at room temperature, and resuspended in about 20 volumes of ice-cold 50 mM Tris salts (pH 7.4@37° C.), 20 mM EDTA, 0.2 M sucrose. The suspension was homogenised using an Ultra-Turrax at full speed for 15 sec. The homogenate was centrifuged at 18,000 r.p.m for 20 min at 4° C. in a Sorvall RC5C centrifuge. The membrane pellet was resuspended in ice-cold 50 mM Tris salts (pH 7.4@37° C.), using an Ultra-Turrax, and recentrifuged at 18,000 r.p.m for 15 min at 4° C. in a Sorvall RC5C. The membranes were washed two more times with ice-cold 50 mM Tris salts (pH 7.4@37° C.). The final pellet was resuspended in 50 mM Tris salts (pH 7.4@37° C.), and the protein content determined using bovine serum albumin as a standard (Bradford, M. M. (1976) Anal. Biochem. 72, 248-254).
Crude cell membranes were incubated with 0.1 nM [^125I] iodosulpride (˜2000 Ci/mmol; Amersham, U. K.), and the test compound in a buffer containing 50 mM Tris salts (pH 7.4@37° C.), 120 mM NaCl, 5 mM KCl, 2 mM CaCl2, 1 mM MgCl2, 0.1% (w/v) bovine serum albumin, in a total volume of 1 ml for 30 min at 37° C. Following incubation, samples were filtered using a Brandel Cell Harvester, and washed three times with ice-cold 50 mM Tris salts (pH 7.4@37° C.), 120 mM NaCl, 5 mM KCl, 2 mM CaCl2, 1 mM MgCl2. The radioactivity on the filters was measured using a Cobra gamma counter (Canberra Packard). Non-specific binding was defined as the radioligand binding remaining after incubation in the presence of 100 μM iodosulpride. For competition curves, 14 concentrations (half-log dilutions) of competing cold drug were used. Competition curves were analysed simultaneously whenever possible using non-linear least-squares fitting procedures, capable of fitting one, two or three site models.
Consider `N#Cc1ccc2c(c1)CCN(CC[C@H]1CC[C@H](NC(=O)Cc3ccco3)CC1)C2` [Example 30, trans-6-Cyano-2-(2-(1-(4-(2-furanyl)acetamido)-cyclohexyl)ethyl)-1,2,3,4-tetrahydroisoquinoline], for which the Ki was 3.16 to 12.6 nM.

Consider `N#Cc1ccc2c(c1)CCN(CC[C@H]1CC[C@H](NC(=O)Cc3cc4ccccc4o3)CC1)C2` [Example 31, trans-6-Cyano-2-(2-(1-(4-(2-benzofuranyl)acetamido)-cyclohexyl)ethyl)-1,2,3,4-tetrahydroisoquinoline], for which the Ki is 3.16 to 12.6 nM.

Turning to `N#Cc1ccc2c(c1)CCN(CC[C@H]1CC[C@H](NC(=O)Cc3ccc(F)cc3)CC1)C2` [Example 32, trans-6-Cyano-2-(2-(1-(4-(4-fluorophenyl)acetamido)cyclohexyl)ethyl)-1,2,3,4-tetrahydroisoquinoline, Hydrochloride], the Ki was 3.16 to 12.6 nM.
